Source: patent US20150175666A1, “PEPTIDES DERIVED FROM HIV GP41 FOR TREATING T-CELL MEDIATED PATHOLOGIES” (Yeda Research and Development Co. Ltd., priority 2012, published 2015)
pIC50: −log10 of the molar value. Like-named read-outs stand apart in the source and are kept apart here. Square brackets hold non-standard residues; d marks the D form. Ends that are not written are not given here. rhodamine = not defined here

Experiments:
[1] = system: MOG35-55-specific murine line T cells (mMOG35-55 T-cells)
[2] = system: TCRα on antigen-stimulated mMOG35-55-specific line T cells; test: Co-localization of Rho-labeled peptides with TCRα (confocal microscopy); type: cell-based, murine; conditions: activated T cells
TCRα on antigen-stimulated mMOG35-55-specific line T cells, sequence (P01849 whole entry): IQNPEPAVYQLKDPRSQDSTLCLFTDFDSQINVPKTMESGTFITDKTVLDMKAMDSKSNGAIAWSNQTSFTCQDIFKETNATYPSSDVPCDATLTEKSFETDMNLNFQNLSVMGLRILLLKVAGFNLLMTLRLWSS
Experimental: FITC excitation was set at 488 nm, with the laser set at 5% power and fluorescence was recorded from 502-525 nm. Rhodamine excitation was set at 559 nm, with the laser set at 1% power and the fluorescence data were collected above 580 nm. Each cell was imaged for TCRα staining (denoted in green) and for peptide staining (denoted in red). Using ImageJ, the images (n=20) were set to binary color and the two revised pictures were used to create a new picture of only what merged between them. The merged picture was divided by the revised red picture to give the percentage of co-localization.
Co-localization of the peptide with the TCR was assessed utilizing confocal microscopy (FIG. 5 D-E). Antigen-stimulated mMOG35-55-specific line T cells were probed with antibodies against TCRα followed by staining with secondary FITC-labeled antibodies (left column) and with the Rho-labeled peptide (SEQ ID NO: 3) (middle column). To evaluate the co-localization between the molecules, a merged image was produced (right column). […] As a control, AMP (SEQ ID NO: 13), a non-related antimicrobial peptide (Papo et al. J Biol Chem. 2005; 280(11):10378-10387), was labeled with rhodamine and its localization on T cells was detected.

[3] = system: TCR (Jurkat T cells); test: Binding of Rho-labeled peptides to T-cell proteins (cross-linking SDS-PAGE, immunoprecipitation); set-up: species or system human; conditions: for fluorescent bands of T-cell proteins bound to Rho-peptide (SDS-PAGE): 1 μM Rho-labeled peptide, formaldehyde cross-linked Jurkat lysate
TCR (Jurkat T cells), sequence (P01848 whole entry): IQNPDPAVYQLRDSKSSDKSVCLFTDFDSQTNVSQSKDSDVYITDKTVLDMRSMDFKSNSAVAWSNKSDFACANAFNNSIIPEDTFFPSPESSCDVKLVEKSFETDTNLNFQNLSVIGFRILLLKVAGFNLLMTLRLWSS
TCR (Jurkat T cells), sequence (P01850 whole entry, further chain): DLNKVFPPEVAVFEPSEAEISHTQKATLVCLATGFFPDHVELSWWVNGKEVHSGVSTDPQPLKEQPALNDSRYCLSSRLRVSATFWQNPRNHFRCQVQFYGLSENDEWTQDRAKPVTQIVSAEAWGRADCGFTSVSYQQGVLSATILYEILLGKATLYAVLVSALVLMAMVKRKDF
Experimental: Jurkat T cells (4×10^6) were incubated over night at 37° C. in the presence of 1 μM rhodamine-labeled peptide and lysed. The lysate was then incubated overnight with TCRα or GFP antibodies (2 μg) following 2 hours of incubation with protein G-plus Agarose beads (Santa Cruz Biotechnology Inc.). Next, the beads were washed with lysis buffer and boiled for 10 minutes; the protein supernatant was then run in a 12% SDS-PAGE. The presence of coimmunoprecipitated peptide was detected by the Typhoon 9400 variable mode imager.
Jurkat T cells (4×10^6) were incubated over night at 37° C. in the presence of 1 μM rhodamine-labeled pep6 (SEQ ID NO:3) and its mutant control peptide. Next, the cells were washed with PBS, crosslinked with 1% formaldehyde and after 10 minutes a 125 mM glycine solution was added to stop the reaction. Formaldehyde is a well known cross-linking agent used in the characterization of protein-protein interactions. The cells were lysed for 30 minutes on ice in a 300 μl lysis buffer followed by a sonication step. Insoluble material was removed by centrifugation at 3000×g for 4 min at 4° C. The proteins were resolved by 12% SDS-PAGE and proteins bound to the fluorescently labeled peptide were detected by the Typhoon 9400 variable mode imager (Amersham Biosciences). Excitation was set at 532 nm, and fluorescence emission was collected by a TAMRA filter (580 nm±30 nm) at 100 μm resolution and 600 volts. The protein loading amount was confirmed by Western blot to actin.
To investigate the interaction of the peptide with the TCR, 1 μM fluorescently labeled Rho-peptides were incubated with Jurkat T cells and then cross-linked with formaldehyde to maintain the interaction with their target proteins. The cross-linked T-cell lysate was resolved by SDS-PAGE and proteins bound to Rho-peptides were detected by the fluorescence of rhodamine (FIG. 5B). […] Western blot for actin was used to assure equal loading. […] Bound proteins were separated by SDS-PAGE and analyzed for the presence of the fluorescently-labeled peptides.

[4] = target: T1, core peptide of TMD from TCRα, CP (GLRILLLKV; SEQ ID NO: 14) (Mus musculus, UniProt P01849); test: Fluorescent measurements of NBD-labeled core peptide of TCRα TMD in LUV; type: binding; conditions: PC:Chol LUV, sequential doses
T1 construct: termed CP (GLRILLLKV); made in house
Experimental: The fluorescence experiments were performed using NBD-labeled core peptides of TCRα (NBD-CP). Fluorescence spectra were obtained at room temperature, with excitation set at 467 nm (10 nm slit) and the emission scan at 500-600 nm (10 nm slits). In a typical experiment, the NBD-CP was first added from a stock solution in DMSO (final concentration of 0.1 μM and a maximum of 0.25% (v/v) DMSO) to a dispersion of PC:Chol LUV (200 μM) in PBS. This was followed by the addition of unlabeled HIV peptides in several sequential doses ranging from 2.5×10-3 μM to 0.4 μM. Fluorescence spectra were obtained before and after the addition of unlabeled HIV peptides. The fluorescence values were corrected by subtracting the corresponding blank (buffer with the same vesicle concentration).
The TCR complex's TMD helices mediate receptor activation through the interactions between basic and acidic residues. […] To investigate this possibility, we utilized NBD fluorescence, which is sensitive to the membrane surroundings; its emission intensity is increased via membrane insertion (Rapaport et al. Embo J. 1995; 14(22):5524-5531). […] Their initial fluorescence emission spectra were first measured in the presence of LUVs alone and then in the presence of several sequential doses of unlabeled peptide and its mutants (SEQ ID NO: 3, 9 and 10) (FIG. 5H).

[5] = system: T-cell lymphocytes derived from mice spleen cells; test: Binding of fluorescently labeled peptides to spleen-derived lymphocytes; type: cell-based
From the text: Further, the T-cell binding affinity of peptides having the amino acid sequence of […] (SEQ ID NO:2 and 11; all L- and all D-amino acids, respectively) was examined. […] Spleen derived B cell lymphocytes were used as a control.

[6] = system: encephalitogenic MOG35-55 reactive T cells (LNCs); test: Ex vivo recall response of lymph node cells from MOG35-55/CFA-immunized mice (proliferation, cytokine ELISA); type: in vivo, C57Bl/6J mice
Experimental: (§1) Mice were subcutaneously immunized with 150 μg MOG35-55 emulsified in complete Freund's adjuvant (CFA) containing 150 μg Mt H37Ra with or without 0.5 mg/kg HIV peptides. Ten days post immunization, draining lymph nodes were removed and cultured in triplicate in the presence or absence of antigen, as previously described. The cultures were incubated for 72 h at 37° C. [3H] Thymidine ([…]) was added for an additional 16 h of incubation and the cultures were then harvested and counted using a Beta Counter. Pro-inflammatory cytokine analysis of IFNγ, IL-12, and TNFα were determined by ELISA, 24 h after cell activation, according to standard protocols from PharMingen (San Diego, Calif.), as described previously
as §1, with “described. […]” for “described. The cultures were incubated for 72 h at 37° C. [3H]”, “described previously. […]” for “described previously”

[7] = MOG35-55 and APCs, peptides 2.5-20 μM

CC[C@H](C)[C@H](NC(=O)[C@H](CCC(N)=O)NC(=O)[C@H](CCC(=O)O)NC(=O)[C@H](CC(C)C)NC(=O)[C@H](CO)NC(=O)[C@H](CCCCN)NC(=O)[C@H](CC(N)=O)NC(=O)[C@H](N)CO)C(=O)N[C@@H](Cc1c[nH]c2ccccc12)C(=O)N[C@@H](CC(N)=O)C(=O)N[C@@H](Cc1c[nH]cn1)C(=O)N[C@H](C(=O)N[C@H](C(=O)N[C@@H](Cc1c[nH]c2ccccc12)C(=O)N[C@@H](CCSC)C(=O)N[C@@H](CCC(=O)O)C(=O)N[C@@H](Cc1c[nH]c2ccccc12)C(=O)N[C@H](CC(=O)O)C(N)=O)[C@@H](C)O)[C@@H](C)O [D-PEP 6, SNKSLEQIWNHTTWMEWD]
pIC50 [1]: 5.52

EQIWNHTTWMEWDREINN-NH2 [SHIFTED PEP 6, EQIWNHTTWMEWDREINN]
pIC50 [1]: 5.00
inhibition of T-cell proliferation (potency in words) [1, 7]: still exhibited potent activity

LQARILAVERYLKDQQL [ISU, LQARILAVERYLKDQQL, reference compound]
pIC50 [1]: 4.82

Rho-AMP: AMP (SEQ ID NO: 13) labeled with rhodamine (KLKLLKLLKLLKLLK; also: rhodamine label, site not given here)
co-localization with TCRα molecules [2]: found throughout the cell membrane

Rho-pep 6: rhodamine N-terminally labeled pep 6 (SEQ ID NO: 3) (rhodamine-SNKSLEQIWNHTTWMEWD-NH2; reading uncertain)
fluorescent bands of T-cell proteins bound to Rho-peptide (SDS-PAGE) [3]: only one major fluorescent band
coimmunoprecipitation with TCRα antibodies ([3]; Jurkat T cells, GFP antibody as control): coprecipitated with the TCR

SNKSLEQIGNHTTGMEGD [SEQ ID NO: 9]
fluorescence emission maxima of NBD-CP upon addition of unlabeled peptide [4]: only a slight increase
fluorescent bands of T-cell proteins bound to Rho-peptide (SDS-PAGE) [3]: neither observed

SNKSLEQIWNHTTWMGWG [SEQ ID NO: 10]
fluorescence emission maxima of NBD-CP upon addition of unlabeled peptide [4]: only a slight increase

TTAVPWNASWSNKSLEQI-NH2 [PEP 1, TTAVPWNASWSNKSLEQI]
pIC50 [1]: < 4.40
inhibition of T-cell proliferation (potency in words) [1, 7]: not active

WNASWSNKSLEQIWNHT-NH2 [PEP 8, WNASWSNKSLEQIWNHT]
pIC50 [1]: 4.82

WNHTTWMEWD ([dW][dN][dH][dT][dT][dW][dM][dE][dW][dD]) [SEQ ID NO: 11]
binding to T-cell lymphocytes versus B cell lymphocytes [5]: preferably bind T-cell lymphocytes
ex vivo recall proliferative response of LNCs to MOG35-55 ([6]; 0.5 mg/kg peptide, day 10 post immunization): down-regulation

WNHTTWMEWD-NH2 [SHORT PEP 6, WNHTTWMEWD]
binding to T-cell lymphocytes versus B cell lymphocytes [5]: preferably bind T-cell lymphocytes
ex vivo recall proliferative response of LNCs to MOG35-55 ([6]; mouse, in vivo): down-regulation
pIC50 [1]: 5.30
inhibition of T-cell proliferation (potency in words) [1]: still exhibited potent activity
